Measured values: patent US12312324B2, “Fluorine-containing substituted benzothiophene compound, and pharmaceutical composition and application thereof” (Shanghai Institute of Materia Medica, Chinese Academy of …, priority 2019, dated 2025)
Entries after “also recorded” stand apart in the source; their conditions may differ.

Key:
[1] = target: human-derived interferon gene stimulating protein (Homo sapiens, UniProt Q86WV6, G230A/H232R/R293Q/R71H); test: THP1-Blue-ISG reporter cell screening for activation of interferon gene stimulating protein and promotion of IFN-β expression; settings: 10 μM, THP1-Blue-ISG cells; for Fold change (ratio relative to the control experiment), First experiment / Fold change (ratio relative to the control experiment), Second experiment / Fold change (ratio relative to the control experiment), Average value: 24 hours, OD650; for Fold change (ratio relative to the control experiment), Average value: average of two experiments
human-derived interferon gene stimulating protein, sequence (Q86WV6 whole entry R71H/G230A/H232R/R293Q): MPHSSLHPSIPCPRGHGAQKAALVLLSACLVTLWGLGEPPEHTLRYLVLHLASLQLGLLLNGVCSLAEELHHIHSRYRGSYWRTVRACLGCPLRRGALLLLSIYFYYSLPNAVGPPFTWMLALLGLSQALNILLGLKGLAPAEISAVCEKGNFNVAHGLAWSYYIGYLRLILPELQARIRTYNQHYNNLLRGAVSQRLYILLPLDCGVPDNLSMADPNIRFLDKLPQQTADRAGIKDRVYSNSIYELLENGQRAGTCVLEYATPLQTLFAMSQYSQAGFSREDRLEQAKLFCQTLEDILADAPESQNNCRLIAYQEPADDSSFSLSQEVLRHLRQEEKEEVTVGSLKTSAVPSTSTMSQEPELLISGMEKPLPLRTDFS

[2] = Pharmacokinetic properties in rats; format: in vivo
[3] = rat, plasma, Intravenous (1 mg/kg)

Fold change (ratio relative to the control experiment), First experiment [1] | Fold change (ratio relative to the control experiment), Second experiment [1] | Fold change (ratio relative to the control experiment), Average value [1] | SMILES | Judgement [1] | other results
23.95 | 25.94 | 24.95 | COc1cc2cc(C(F)(F)CCC(=O)O)sc2cc1OC [Compound S2] | effective (when the Fold change≥2, it is effective) | plasma exposure (AUC) of intravenous injection relative to that of 1a ([2]; intravenous injection, versus compound 1a): about 4.4 times; pharmacokinetic properties (T1/2, Cmax, AUC, MRT) compared with compound 1a (in words) ([2]; oral or intravenous, versus compound 1a): significantly superior; also recorded: significantly better; AUC [2, 3]: 7180 ng·h/mL; MRT [2, 3]: 51.2 min; clearance [2, 3]: 2.33 mL/min/kg; half-life [2, 3]: 40.1 min; AUC ([2]; rat, plasma, Oral (3 mg/kg)): 5820 ng·h/mL; Cmax ([2]; rat, plasma, Oral (3 mg/kg)): 6910 ng/mL; MRT ([2]; rat, plasma, Oral (3 mg/kg)): 69 min; half-life ([2]; rat, plasma, Oral (3 mg/kg)): 44.4 min
24.31 | 33.69 | 29.00 | COc1cc2cc(C(F)(F)CCC(=O)OC(C)C)sc2cc1OC [Compound S3] | effective (when the Fold change≥2, it is effective) | –
15.82 | 26.22 | 21.02 | COc1cc2cc(C(F)(F)CCC(=O)N(C)O)sc2cc1OC [Compound S6] | effective (when the Fold change≥2, it is effective) | –
23.95 | 29.94 | 26.95 | COc1cc2cc(C(F)(F)CCC(=O)N(O)C(F)F)sc2cc1OC [Compound S7] | effective (when the Fold change≥2, it is effective) | –
25.41 | 34.36 | 29.89 | COc1cc2cc(C(F)(F)CCC(=O)N(O)C(C)C)sc2cc1OC [Compound S10] | effective (when the Fold change≥2, it is effective) | –
20.44 | 30.93 | 25.69 | COc1cc2cc(C(F)(F)CCC(=O)N(O)Cc3ccccc3)sc2cc1OC [Compound S11] | effective (when the Fold change≥2, it is effective) | –
22.38 | 31.54 | 26.96 | COc1cc2cc(C(F)(F)CCC(=O)N(O)C(F)(F)c3ccccc3)sc2cc1OC [Compound S12] | effective (when the Fold change≥2, it is effective) | –
26.23 | 35.12 | 30.68 | COc1cc2cc(C(F)(F)CCC(=O)N(O)C3CC3)sc2cc1OC [Compound S15] | effective (when the Fold change≥2, it is effective) | –
17.62 | 28.34 | 22.98 | COc1cc2cc(C(F)(F)CCC(=O)NOc3ccccc3)sc2cc1OC [Compound S18] | effective (when the Fold change≥2, it is effective) | –
25.73 | 31.81 | 28.77 | COc1cc2sc(C(F)(F)CCC(=O)O)cc2c(F)c1OC [Compound S19] | effective (when the Fold change≥2, it is effective) | –
27.51 | 32.63 | 30.07 | CO/C1=C(\OC)C/C(F)=c2/cc(C(F)(F)CCC(=O)N(O)C(C)C)s/c2=C/C1 [Compound S21] | effective (when the Fold change≥2, it is effective) | –
15.53 | 24.54 | 20.04 | COC1=C(OC)CC=c2cc(C(F)CCCC(=O)N(O)C(C)C)sc2=C1 (stereo not shown) [Compound S24] | effective (when the Fold change≥2, it is effective) | –
16.24 | 25.03 | 20.62 | O=C(O)CCC(F)(F)c1cc2cc3c(cc2s1)OCO3 [Compound S26] | effective (when the Fold change≥2, it is effective) | –
23.75 | 33.73 | 28.74 | COc1cc2sc(C(F)(F)CCC(=O)O)cc2cc1Br [Compound S28] | effective (when the Fold change≥2, it is effective) | –
25.26 | 34.05 | 29.66 | C=Cc1cc2cc(C(F)(F)CCC(=O)O)sc2cc1OC [Compound S29] | effective (when the Fold change≥2, it is effective) | –
